Source: PMC6576746, “Rational discovery of dual-indication multi-target PDE/Kinase inhibitor for precision anti-cancer therapy using structural systems pharmacology” (PLoS Computational Biology, 2019)

Key:
Assay in all cases: cells
Set-up in all cases: species or system panel of human cancer cell lines; Eurofins OncoPanel proliferation; nuclei count by high-content fluorescence imaging, 10-point dose response
Hs 729 = conditions: 72 h, cell count, 3 days
Procedure, shortened: (§1)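 Ten half-log concentrations from 100 μM (0.1% DMSO max) applied one day post-seeding, 3-day exposure at 37°C; untreated time-zero plate for GI50. Readout is nuclear cell count by automated fluorescence imaging, giving EC50, IC50, GI50 and 0–10 activity area.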

KU812 = conditions: Homo sapiens, KU812, 72 h, cell count, 3 days
Procedure, shortened: as §1

HCT-116 = conditions: Homo sapiens, HCT-116, 72 h, cell count, 3 days
Procedure, shortened: as §1

SCC-9 = conditions: Homo sapiens, SCC-9, 72 h, cell count, 3 days
Procedure, shortened: as §1

647-V = conditions: Homo sapiens, 647-V, 72 h, cell count, 3 days
Procedure, shortened: as §1

PFSK-1 = conditions: Homo sapiens, PFSK-1, 72 h, cell count, 3 days
Procedure, shortened: as §1

CCRFCEM = conditions: Homo sapiens, CCRF-CEM, 72 h, cell count, 3 days
Procedure, shortened: as §1

NCI-H508 = conditions: Homo sapiens, NCI-H508, 72 h, cell count, 3 days
Procedure, shortened: as §1

ChaGoK1 = conditions: Homo sapiens, ChaGo-K-1, 72 h, cell count, 3 days
Procedure, shortened: as §1

BPH1 = conditions: Homo sapiens, BPH-1, 72 h, cell count, 3 days
Procedure, shortened: as §1

NALM-6 = conditions: Homo sapiens, NALM-6, 72 h, cell count, 3 days
Procedure, shortened: as §1

H4 = conditions: 72 h, cell count, 3 days
Procedure, shortened: as §1

T24 = conditions: Homo sapiens, T-24, 72 h, cell count, 3 days
Procedure, shortened: as §1

HuTu 80 = conditions: Homo sapiens, HuTu80, 72 h, cell count, 3 days
Procedure, shortened: as §1

[1] = 50% of maximum possible response

IC50 (HCT-116; [1]): 8.39 µM
GI50 (HCT-116; corrected for time zero): 8.1 µM
EC50 (HCT-116; curve inflection point): 8.01 µM
IC50 (CCRFCEM; [1]): 35.5 µM
GI50 (CCRFCEM; corrected for time zero): 28.5 µM
EC50 (CCRFCEM; curve inflection point): 35.5 µM
IC50 (NCI-H508; [1]): 38.4 µM
GI50 (NCI-H508; corrected for time zero): 33.5 µM
EC50 (NCI-H508; curve inflection point): 38.4 µM
IC50 (T24; [1]): 6.95 µM
GI50 (T24; corrected for time zero): 6.6 µM
EC50 (T24; curve inflection point): 6.27 µM
SMILES: C[C@@H]1CC(=O)NN=C1c1ccc(NN=C(C#N)C#N)cc1 [levosimendan]
IC50 (Hs 729; [1]): > 100 µM
GI50 (Hs 729; corrected for time zero): 79.3 µM
EC50 (Hs 729; curve inflection point): > 100 µM
IC50 (KU812; [1]): 70.3 µM
GI50 (KU812; corrected for time zero): 48.8 µM
EC50 (KU812; curve inflection point): 70.3 µM
IC50 (SCC-9; [1]): 33.6 µM
GI50 (SCC-9; corrected for time zero): 26.3 µM
EC50 (SCC-9; curve inflection point): 33.6 µM
IC50 (647-V; [1]): 13.7 µM
GI50 (647-V; corrected for time zero): 8.64 µM
EC50 (647-V; curve inflection point): 13.7 µM
IC50 (PFSK-1; [1]): 19.6 µM
GI50 (PFSK-1; corrected for time zero): 13.9 µM
EC50 (PFSK-1; curve inflection point): 19.6 µM
IC50 (ChaGoK1; [1]): 84.9 µM
GI50 (ChaGoK1; corrected for time zero): 57.2 µM
EC50 (ChaGoK1; curve inflection point): 84.9 µM
IC50 (BPH1; [1]): 8.33 µM
GI50 (BPH1; corrected for time zero): 7.33 µM
EC50 (BPH1; curve inflection point): 7.05 µM
IC50 (NALM-6; [1]): 30.8 µM
GI50 (NALM-6; corrected for time zero): 23.4 µM
EC50 (NALM-6; curve inflection point): 30.8 µM
IC50 (H4; [1]): > 100 µM
GI50 (H4; corrected for time zero): > 100 µM
EC50 (H4; curve inflection point): > 100 µM
IC50 (HuTu 80; [1]): 16 µM
GI50 (HuTu 80; corrected for time zero): 14.2 µM
EC50 (HuTu 80; curve inflection point): 16 µM
